Test [1] has as its system COL1A1 promoter. The test is described as follows: Inhibition of COL1A1 promotor activity in human LX2 cells at 20 uM incubated for 24 hrs by luciferase reporter gene assay. It is filed as cell-based. (Reporter assays use an easily measured gene product as a stand-in for the process of interest.)
The subject of test [2] is COL1A1 promoter. In words: Inhibition of COL1A1 promotor activity in human LX2 cells at 50 uM incubated for 24 hrs by luciferase reporter gene assay. It is filed as cell-based.

Calls of active or inactive are those of the source. The rule behind the calls is not given here.

As usually defined, the inhibition is the relative decrease from the control value, in per cent. For the compound `CC[N+]1(CCCCCCCOc2ccc(-n3cc(C(=O)Nc4cc(F)cc(F)c4)c(=O)c4ccc(N(C)C)nc43)cc2Cl)CCCCC1`, the inhibition in the test on COL1A1 promoter [1] amounted to 14.3%; with COL1A1 promoter [2], 50.4%.
For the compound `Cc1cc(OCCCCCCC[n+]2ccccc2)cc(-n2cc(C(=O)Nc3cc(F)cc(F)c3)c(=O)c3ccc(N(C)C)nc32)c1`, the inhibition in the test with COL1A1 promoter [1] worked out at 7.7%; in the test on COL1A1 promoter [2] it was 61%.
On to `Cc1cc(OCCCCCCC[N+]2(C)CCCC2)cc(-n2cc(C(=O)Nc3cc(F)cc(F)c3)c(=O)c3ccc(N(C)C)nc32)c1`, for which the inhibition in the test with COL1A1 promoter [1] was 4.32%; in the test with COL1A1 promoter [2] it was 35.4%.
Taken in the same sequence, the figures for `Cc1cc(OCCCCCCC[N+]2(C)CCN(C)CC2)cc(-n2cc(C(=O)Nc3cc(F)cc(F)c3)c(=O)c3ccc(N(C)C)nc32)c1` were 2.8% and 38.2%.
The compound `CN(C)c1ccc2c(=O)c(C(=O)Nc3cc(F)cc(F)c3)cn(-c3ccc(OCCCCCCC[N+]45CCN(CC4)CC5)c(Cl)c3)c2n1` gave an inhibition with COL1A1 promoter [2] of 20.4%.
Take `Cc1cc(-n2cc(C(=O)Nc3cc(F)cc(F)c3)c(=O)c3ccc(N(C)C)nc32)ccc1OCCCCCCC[N+]1(C)CCN(C)CC1`: the inhibition in the test with COL1A1 promoter [1] came to 16.2%; in the test with COL1A1 promoter [2] it was 32%.
The matching figures for `CC[N+]1(CCCCCCCOc2ccc(-n3cc(C(=O)Nc4cc(F)cc(F)c4)c(=O)c4ccc(N(C)C)nc43)cc2C)CCCCC1`: 19.7% and 53.4%.
Taken in the same sequence, the figures for `CN1CC[N+](C)(CCCCCCCOc2cc(-n3cc(C(=O)Nc4cc(F)cc(F)c4)c(=O)c4ccc(N(C)C)nc43)ccc2Cl)CC1` were 27.5% and 45.2%.
The matching figures for `Cc1cc(-n2cc(C(=O)Nc3cc(F)cc(F)c3)c(=O)c3ccc(N(C)C)nc32)ccc1OCCCCCCC[N+]1(C)CCCCC1`: 33% and 54.4%.
As for `Cc1cc(-n2cc(C(=O)Nc3cc(F)cc(F)c3)c(=O)c3ccc(N(C)C)nc32)ccc1OCCCCCCC[N+]12CCN(CC1)CC2`, the inhibition in the test on COL1A1 promoter [1] was 10.6%; with COL1A1 promoter [2], 20.8%.
Taken in the same sequence, the figures for `CN(C)c1ccc2c(=O)c(C(=O)Nc3cc(F)cc(F)c3)cn(-c3ccc(OCCCCCCC[n+]4ccccc4)cc3Cl)c2n1` were “inactive” and “inactive”.
Consider `Cc1ccc(-n2cc(C(=O)Nc3cc(F)cc(F)c3)c(=O)c3ccc(N(C)C)nc32)cc1OCCCCCCC[n+]1ccccc1`, for which the results for the inhibition in the test with COL1A1 promoter [1] and with COL1A1 promoter [2] were 39.7% and 22.2%, respectively.
Taken in the same sequence, the figures for `CN(C)c1ccc2c(=O)c(C(=O)Nc3cc(F)cc(F)c3)cn(-c3ccc(OCCCCCCC[N+](C)(C)C4CCCCC4)cc3F)c2n1` were “inactive” and “inactive”.
Turning to `CN(C)c1ccc2c(=O)c(C(=O)Nc3cc(F)cc(F)c3)cn(-c3ccc(OCCCCCCC[N+](C)(C)C4CCCCC4)cc3Cl)c2n1`, the inhibition entry in the test on COL1A1 promoter [1] and in the test with COL1A1 promoter [2] was “inactive” in each case.
Consider `Cc1cc(OCCCCCCC[N+]23CCN(CC2)CC3)cc(-n2cc(C(=O)Nc3cc(F)cc(F)c3)c(=O)c3ccc(N(C)C)nc32)c1`, for which the inhibition came out at 10.3% in the test on COL1A1 promoter [1] and 5.52% in the test on COL1A1 promoter [2].
Regarding `CN1CC[N+](C)(CCCCCCCOc2ccc(-n3cc(C(=O)Nc4cc(F)cc(F)c4)c(=O)c4ccc(N(C)C)nc43)c(F)c2)CC1`, the inhibition entry in the test with COL1A1 promoter [1] was “inactive”.
`CC[N+]1(CCCCCCCOc2ccc(-n3cc(C(=O)Nc4cc(F)cc(F)c4)c(=O)c4ccc(N(C)C)nc43)cc2Cl)CCCC1` came in with an inhibition in the test with COL1A1 promoter [2] of 23.5%.
The same measure, in the same setting: for `CN(C)c1ccc2c(=O)c(C(=O)Nc3cc(F)cc(F)c3)cn(-c3ccc(OCCCCCCC[N+]4(C)CCCCC4)c(Cl)c3)c2n1` the value was “inactive”; for `CN(C)c1ccc2c(=O)c(C(=O)Nc3cc(F)cc(F)c3)cn(-c3ccc(OCCCCCCC[N+]4(C)CCCC4)c(Cl)c3)c2n1`, 2.59%; for `CN1CC[N+](C)(CCCCCCCOc2ccc(-n3cc(C(=O)Nc4cc(F)cc(F)c4)c(=O)c4ccc(N(C)C)nc43)cc2Cl)CC1`, 15.4%.
On the same count and under the same terms, in the case of `CN(C)c1ccc2c(=O)c(C(=O)Nc3cc(F)cc(F)c3)cn(-c3ccc(OCCCCCCC[n+]4ccccc4)c(Cl)c3)c2n1` it was 21.4%.

The values above are taken from ChEMBL document CHEMBL4840344, “Discovery of 1,8-naphthalidine derivatives as potent anti-hepatic fibrosis agents via repressing PI3K/AKT/Smad and JAK2/STAT3 pathways” (Bioorg Med Chem, 2021).
